The values below come from patent US10238743B2 (Merck Sharp & Dohme Corp., priority 2014, dated 2019).

For assay [1], the target named is soluble human BACE1 catalytic domain (Homo sapiens (Human), UniProt P56817). In words: BACE1 HTRF FRET Assay. Particulars: Ki calculated from IC50 using the Cheng-Prusoff equation; QSY7-APPswe-Eu substrate, pH 5.0; read-out: BACE-1 Ki. It counts as biochemical. The source says:
Na^+-Acetate pH 5.0; 1% Brij-35; Glycerol; Dimethyl Sulfoxide (DMSO); Recombinant human soluble BACE1 catalytic domain (>95% pure); APP Swedish mutant peptide substrate (QSY7-APP^swe-Eu): QSY7-EISEVNLDAEFC-Europium-amide.
A homogeneous time-resolved FRET assay can be used to determine IC50 values for inhibitors of the soluble human BACE1 catalytic domain. This assay monitors the increase of 620 nm fluorescence that resulted from BACE1 cleavage of an APPswedish APP^swe mutant peptide FRET substrate (QSY7-EISEVNLDAEFC-Europium-amide). This substrate contains an N-terminal QSY7 moiety that serves as a quencher of the C-terminal Europium fluorophore (620 nm Em). In the absence of enzyme activity, 620 nm fluorescence is low in the assay and increased linearly over 3 hours in the presence of uninhibited BACE1 enzyme. Inhibition of BACE1 cleavage of the QSY7-APP^swe-Eu substrate by inhibitors is manifested as a suppression of 620 nm fluorescence.
Varying concentrations of inhibitors at 3× the final desired concentration in a volume of 10 ul are preincubated with purified human BACE1 catalytic domain (3 nM in 10 μl) for 30 minutes at 30° C. in reaction buffer containing 20 mM Na-Acetate pH 5.0, 10% glycerol, 0.1% Brij-35 and 7.5% DSMO. Reactions are initiated by addition of 10 μl of 600 nM QSY7-APP^swe-Eu substrate (200 nM final) to give a final reaction volume of 30 μl in a 384 well Nunc HTRF plate. The reactions are incubated at 30° C. for 1.5 hours. The 620 nm fluorescence is then read on a Rubystar HTRF plate reader (BMG Labtechnologies) using a 50 millisecond delay followed by a 400 millisecond acquisition time window. Inhibitor IC50 values are derived from non-linear regression analysis of concentration response curves. Ki values are then calculated from IC50 values using the Cheng-Prusoff equation using a previously determined […] of 8 μM for the QSY7-APP^swe-Eu substrate at BACE1.

The target of assay [2] is purified human autoBACE-2 (Homo sapiens (Human), UniProt Q9Y5Z0). In words: BACE-2 Assay (BACE-HTRF assay). The assay is classed as biochemical. As to conditions: Ki calculated from IC50 using the Cheng-Prusoff equation; QSY7-EISEVNLDAEFC-Eu-amide substrate, pH 5.0. The method, then: Inhibitor IC50s at purified human autoBACE-2 are determined in a time-resolved endpoint proteolysis assay that measures hydrolysis of the QSY7-[…]-Eu-amide FRET peptide substrate (BACE-HTRF assay). […] DMSO is present at 5% final concentration in the assay. Following laser excitation of sample wells at 320 nm, the fluorescence signal at 620 nm is collected for 400 ms following a 50 μs delay on a RUBYstar HTRF plate reader (BMG Labtechnologies). Raw RFU data is normalized to maximum (1.0 nM BACE/DMSO) and minimum (no enzyme/DMSO) RFU values. […] The Ki values are calculated from the IC50 using the Cheng-Prusoff equation.
Sequence of purified human autoBACE-2 (Q9Y5Z0 63-473 limits assumed): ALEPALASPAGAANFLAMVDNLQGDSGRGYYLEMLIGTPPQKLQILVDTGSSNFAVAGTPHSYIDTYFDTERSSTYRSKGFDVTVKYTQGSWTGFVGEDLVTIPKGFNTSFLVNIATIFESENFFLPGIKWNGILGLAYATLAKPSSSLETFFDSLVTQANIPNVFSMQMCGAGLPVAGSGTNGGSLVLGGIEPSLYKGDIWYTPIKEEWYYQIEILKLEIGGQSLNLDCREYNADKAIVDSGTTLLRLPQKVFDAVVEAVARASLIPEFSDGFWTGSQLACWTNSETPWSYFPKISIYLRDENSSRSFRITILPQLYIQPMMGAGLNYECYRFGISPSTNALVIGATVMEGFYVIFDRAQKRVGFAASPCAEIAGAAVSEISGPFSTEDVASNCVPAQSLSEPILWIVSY

Sequence of soluble human BACE1 catalytic domain (P56817 75-416): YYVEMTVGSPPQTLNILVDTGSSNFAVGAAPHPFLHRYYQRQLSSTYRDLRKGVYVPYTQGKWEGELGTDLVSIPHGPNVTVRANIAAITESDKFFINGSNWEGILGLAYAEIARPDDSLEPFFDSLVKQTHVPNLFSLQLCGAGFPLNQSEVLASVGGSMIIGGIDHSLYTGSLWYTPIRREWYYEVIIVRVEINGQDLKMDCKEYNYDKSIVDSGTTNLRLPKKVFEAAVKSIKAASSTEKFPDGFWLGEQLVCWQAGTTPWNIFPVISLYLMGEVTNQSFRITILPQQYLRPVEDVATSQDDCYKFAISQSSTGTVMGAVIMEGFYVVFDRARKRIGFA

For orientation: Ki means the dissociation constant of the complex between target and ligand, obtained from inhibition or displacement. For the compound `CN1C(=N)N[C@]2(C)c3cc(NC(=O)c4ccc(F)cn4)ccc3OCC[C@H]2S1(=O)=O` [Example 7, 5-fluoro-N-((4aR,11bR)-2-imino-3,11b-dimethyl-4,4-dioxido-2,3,4a,5,6,11b-hexahydro-1H-benzo[2,3]oxepino[4,5-e][1,2,4]thiadiazin-10-yl)picolinamide], the figures for the Ki in assay [1] and in assay [2] were 108 nM and 159 nM, respectively.
`Cc1ccc(C(=O)Nc2ccc3c(c2)[C@@]2(C)NC(=N)N(C)S(=O)(=O)[C@H]2CCO3)nc1` [Example 17, N-((4aS,11bR)-2-imino-3,11b-dimethyl-4,4-dioxido-2,3,4a,5,6,11b-hexahydro-1H-benzo[2,3]oxepino[4,5-e][1,2,4]thiadiazin-10-yl)-5-methylpicolinamide]: the Ki in assay [1] is 18 nM; in assay [2], 16 nM.
Regarding `CN1C(=N)N[C@]2(C)c3cc(NC(=O)c4ncc(C(F)(F)F)cc4Cl)ccc3CCC[C@@H]2S1(=O)=O` [Example 30, 3-chloro-N-((4aS,11bR)-2-imino-3,11b-dimethyl-4,4-dioxido-1,2,3,4a,5,6,7,11b-octahydrobenzo[6,7]cyclohepta[1,2-e][1,2,4]thiadiazin-10-yl)-5-(trifluoromethyl)picolinamide], the Ki in assay [1] was 10 nM; in assay [2] it was 82 nM.
`CN1C(=N)N[C@]2(C)c3cc(NC(=O)c4ccc(C#N)cn4)ccc3OCC[C@H]2S1(=O)=O` [Example 5, 5-cyano-N-((4aR,11bR)-2-imino-3,11b-dimethyl-4,4-dioxido-2,3,4a,5,6,11b-hexahydro-1H-benzo[2,3]oxepino[4,5-e][1,2,4]thiadiazin-10-yl)picolinamide]: the Ki in assay [1] is 47 nM; in assay [2], 303 nM.
The like results for `COc1cnc(C(=O)Nc2ccc3c(c2)[C@@]2(C)NC(=N)N(C)S(=O)(=O)[C@@H]2CCO3)cn1` [Example 9, N-((4aR,11bR)-2-imino-3,11b-dimethyl-4,4-dioxido-2,3,4a,5,6,11b-hexahydro-1H-benzo[2,3]oxepino[4,5-e][1,2,4]thiadiazin-10-yl)-5-methoxypyrazine-2-carboxamide] were, in that order, 591 nM and 5610 nM.
In the case of `COc1cnc2c(Nc3ccc4c(c3)[C@@]3(C)NC(=N)N(C)S(=O)(=O)[C@H]3CCC4)ccnc2n1` [Example 45, (4aS,11bR)-2-imino-10-((3-methoxypyrido[2,3-b]pyrazin-8-yl)amino)-3,11b-dimethyl-1,2,3,4a,5,6,7,11b-octahydrobenzo[6,7]cyclohepta[1,2-e][1,2,4]-thiadiazine 4,4-dioxide], the Ki was 547 nM in assay [1] and 2440 nM in assay [2].
Turning to `CN1C(=N)N[C@]2(C)c3cc(NC(=O)c4ccc(OC(F)F)cn4)ccc3OCC[C@@H]2S1(=O)=O` [Example 12, 5-(difluoromethoxy)-N-((4aS,11bR)-2-imino-3,11b-dimethyl-4,4-dioxido-2,3,4a,5,6,11b-hexahydro-1H-benzo[2,3]oxepino[4,5-e][1,2,4]thiadiazin-10-yl)picolinamide], the Ki was 5 nM in assay [1] and 58 nM in assay [2].
For `CN1C(=N)N[C@]2(C)c3cc(NC(=O)c4ccc(C#N)cn4)ccc3CCC[C@@H]2S1(=O)=O` [Example 36], the figures for the inhibitory constant (Ki) in assay [1] and in assay [2] were 4 nM and 25 nM, respectively.
For `CN1C(=N)N[C@]2(C)c3cc(NCC4CC4)ccc3OCC[C@@H]2S1(=O)=O` [Example 48, (4aS,11bR)-10-((cyclopropylmethyl)amino)-2-imino-3,11b-dimethyl-2,3,4a,5,6,11b-hexahydro-1H-benzo[2,3]oxepino[4,5-e][1,2,4]thiadiazine 4,4-dioxide], the Ki in assay [1] was 880 nM; in assay [2], 2010 nM.
